For test [1], the species on record is Rattus norvegicus. The experiment in a line: Displacement of [3H]DTH from sigma 2 receptor in rat liver homogenate at 100 nM in presence of (+)-pentazocine. The test is classed as tissue-based.
For test [2], the target named is Sigma non-opioid intracellular receptor 1 (Rattus norvegicus) (UniProt Q9R0C9). Kind of test: Displacement of [3H] (+)-pentazocine from sigma 1 receptor in rat liver homogenate at 100 nM. The class given is tissue-based.
Test [3] is described as follows: Displacement of [3H]DTH from sigma 2 receptor in rat liver homogenate in presence of (+)-pentazocine. The test is classed as tissue-based. (Displacement assays read how much labelled ligand stays bound in the presence of the test substance.)
Test [4] has as its target Sigma non-opioid intracellular receptor 1 (Rattus norvegicus, UniProt Q9R0C9). Kind of test: Displacement of [3H] (+)-pentazocine from sigma 1 receptor in rat liver homogenate. The class given is tissue-based.
Test [5] is filed under the species Rattus norvegicus. Kind of test: Selectivity ratio of Ki for rat sigma 1 receptor to Ki for rat sigma 2 receptor.

Sequence of Sigma non-opioid intracellular receptor 1 (Q9R0C9 whole entry): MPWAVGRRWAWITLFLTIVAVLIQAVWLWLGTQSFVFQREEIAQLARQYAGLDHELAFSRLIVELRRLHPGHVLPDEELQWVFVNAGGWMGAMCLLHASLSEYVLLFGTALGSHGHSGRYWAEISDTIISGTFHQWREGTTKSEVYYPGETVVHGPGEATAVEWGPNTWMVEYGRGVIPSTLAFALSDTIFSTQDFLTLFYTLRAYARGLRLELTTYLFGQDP
Sequence of Sigma non-opioid intracellular receptor 1 (Rattus norvegicus) (Q9R0C9 whole entry): as above

As for `CN(CCCc1cn(-c2ccc(F)cc2)c2ccccc12)Cc1ccc(Cl)cc1`, the Activity in the test filed under Rattus norvegicus [1] came to 59%; in test [2], 68%.
For `Fc1ccc(-n2cc(CCCCN3CCC4(CC3)OCc3ccccc34)c3ccccc32)cc1` [SIRAMESINE], the 50% inhibitory concentration (IC50) in test [3] was determined as 0.12 nM.
In the case of `CN(CCCCc1cn(-c2ccc(F)cc2)c2ccccc12)Cc1ccccc1Cl`, the Activity in the test filed under Rattus norvegicus [1] stood at 87%; in test [2] it was 58%.
On to `Cc1cccc(CN(C)CCCCc2cn(-c3ccc(F)cc3)c3ccccc23)c1`, for which the figures for the Activity (in the test listed under Rattus norvegicus [1]; in test [2]) were 85% and 51%, respectively.
As to `Cc1ccc(CN(C)CCCc2cn(-c3ccc(F)cc3)c3ccccc23)cc1C`, the Activity in the test listed under Rattus norvegicus [1] worked out at 85%; in test [2], 38%. Moreover, the Ki in test [3] was 46.9 nM; in test [4] it was 118 nM. Besides, the Ratio Ki in the test listed under Rattus norvegicus [5] worked out at 2.5.
On to `CN(CCCc1cn(-c2ccc(F)cc2)c2ccccc12)Cc1ccc(Br)cc1`, for which the Activity in the test filed under Rattus norvegicus [1] was 54%; in test [2], 71%.
On to `CN(CCCc1cn(-c2ccc(F)cc2)c2ccccc12)Cc1ccccc1F`, for which the Activity was determined as 46% in the test filed under Rattus norvegicus [1] and 59% in test [2].
With `CN(CCCc1cn(-c2ccc(F)cc2)c2ccccc12)Cc1cccc(Cl)c1`, the values for the Activity (in the test filed under Rattus norvegicus [1]; in test [2]) were 59% and 42%, respectively. Also, the values for the Ki in test [3] and in test [4] were 124 nM and 98.9 nM, respectively. In addition, the Ratio Ki in the test filed under Rattus norvegicus [5] was 0.8.
On to `CN(CCCCc1cn(-c2ccc(F)cc2)c2ccccc12)Cc1ccccc1Br`, for which the Activity in the test filed under Rattus norvegicus [1] is 86%; in test [2], 46%.
Take `CN(CCCCc1cn(-c2ccc(F)cc2)c2ccccc12)Cc1ccc(Cl)cc1`: the Activity in the test listed under Rattus norvegicus [1] was 85%; in test [2], 72%.
In the case of `CN(CCCc1cn(-c2ccc(F)cc2)c2ccccc12)Cc1ccccc1`, the Activity in the test listed under Rattus norvegicus [1] was determined as 27%; in test [2], 78%. Further, the Ki in test [3] stood at 444 nM; in test [4], 20.8 nM. In addition, the Ratio Ki in the test listed under Rattus norvegicus [5] was 0.05.
Regarding `CN(CCCCc1cn(-c2ccc(F)cc2)c2ccccc12)Cc1ccccc1`, the Activity was 68% in the test listed under Rattus norvegicus [1] and 76% in test [2]. The Ki in test [3] amounted to 57.7 nM; in test [4], 43 nM. Besides, the Ratio Ki in the test listed under Rattus norvegicus [5] was 0.76.
For the compound `CN(CCCc1cn(-c2ccc(F)cc2)c2ccccc12)Cc1ccccc1Cl`, the Activity amounted to 40% in the test listed under Rattus norvegicus [1] and 56% in test [2].
As for `COc1cccc2c1CCCC2CCCCN1CCN(C2CCCCC2)CC1` (stereo not drawn), in test [3], the inhibition constant (Ki) amounted to 0.34 nM.
`CN(CCCc1cn(-c2ccc(F)cc2)c2ccccc12)Cc1ccccc1Br`: the Activity in the test filed under Rattus norvegicus [1] was 43%; in test [2] it was 41%.
For the compound `Cc1ccc(CN(C)CCCCc2cn(-c3ccc(F)cc3)c3ccccc23)cc1`, the Activity in the test filed under Rattus norvegicus [1] worked out at 87%; in test [2], 71%.
For the compound `CN(CCCCc1cn(-c2ccc(F)cc2)c2ccccc12)Cc1cccc(Cl)c1`, the Activity stood at 89% in the test filed under Rattus norvegicus [1] and 22% in test [2]. Besides, the Ki in test [3] was found to be 25.6 nM; in test [4], 201 nM. The Ratio Ki in the test listed under Rattus norvegicus [5] was found to be 7.9.
As for `CN(CCCc1cn(-c2ccc(F)cc2)c2ccccc12)Cc1cccc(Br)c1`, the Activity amounted to 62% in the test listed under Rattus norvegicus [1] and 40% in test [2].
Consider `Cc1ccc(CN(C)CCCc2cn(-c3ccc(F)cc3)c3ccccc23)cc1`, for which the Activity in the test filed under Rattus norvegicus [1] stood at 78%; in test [2], 69%.
With `CN(CCCCc1cn(-c2ccc(F)cc2)c2ccccc12)Cc1ccccc1F`, the Activity is 88% in the test listed under Rattus norvegicus [1] and 49% in test [2].
As to `CN(CCCCc1cn(-c2ccc(F)cc2)c2ccccc12)Cc1ccc(Cl)c(Cl)c1`, the Activity in the test filed under Rattus norvegicus [1] stood at 69%; in test [2], 10%.
For the compound `CN(CCCCc1cn(-c2ccc(F)cc2)c2ccccc12)Cc1ccc(Br)cc1`, the Activity in the test filed under Rattus norvegicus [1] is 84%; in test [2] it was 70%.
Consider `Cc1cccc(CN(C)CCCc2cn(-c3ccc(F)cc3)c3ccccc23)c1`, for which the Activity in the test listed under Rattus norvegicus [1] came out at 64%; in test [2], 63%.
Regarding `CN(CCCCc1cn(-c2ccc(F)cc2)c2ccccc12)Cc1cccc(Br)c1`, the Activity turned out to be 78% in the test listed under Rattus norvegicus [1] and 28% in test [2].
On to `Cc1ccc(CN(C)CCCCc2cn(-c3ccc(F)cc3)c3ccccc23)cc1C`, for which the Activity in the test filed under Rattus norvegicus [1] turned out to be 93%; in test [2], 37%. Further, the values for the Ki in test [3] and in test [4] were 5.9 nM and 20.8 nM, respectively. Besides, the Ratio Ki in the test filed under Rattus norvegicus [5] is 0.05.
Regarding `CN(CCCc1cn(-c2ccc(F)cc2)c2ccccc12)Cc1ccc(Cl)c(Cl)c1`, the Activity in the test listed under Rattus norvegicus [1] was found to be 39%; in test [2], 28%.

The IC50 is the point on the concentration scale where inhibition reaches its midpoint. As usually defined, the Ki is the dissociation constant of the complex between target and ligand, obtained from inhibition or displacement.

(Values after ChEMBL document CHEMBL1158175, “Substituted benzylaminoalkylindoles with preference for the sigma2 binding site” (Eur J Med Chem, 2008).)
